Results taken from paper PMC11831592, “Repurposing Linezolid in Conjunction with Histone Deacetylase Inhibitor Access in the Realm of Glioblastoma Therapies” (Journal of Medicinal Chemistry, 2025).

Tests used:
[1] = system: A172-R TMZ-resistant GBM cell line; assay: MTT cytotoxicity assay, A172-R; type: cell-based; settings: Homo sapiens, 72 h
Protocol: (§1) We utilized linezolid as the structural foundation to confirm the cytotoxicity of linezolid-conjugated functional domains against glioblastoma (GBM). We combined it with the binding structures of anti-histone deacetylases (HDACs) (denoted as compounds 1–5 and 11–14), antitubulin (compound 6), anticyclooxygenase (COX) (compound 7), and anti-heat shock protein 90 (Hsp90) (compounds 8–10). These constructs were then administered to TMZ-resistant GBM cell lines A172R and PT#3R at concentrations ranging from 0 to 80 μM over 72 h. The cytotoxic effects of these compounds were assessed using the MTT assay (Table 1 and Supporting Information IV). […] Given the remarkable cytotoxicity of compound 1 on both A172-R and PT#3-R TMZ-resistant cells, this study subsequently focused on compound 1 for further in-depth investigation and mechanistic exploration. To validate that the cytotoxic effect of compound 1 on GBM is not attributed to linezolid alone, we separately treated the TMZ-resistant GBM cell line PT#3-R with compound 1 and linezolid. […] This confirms that the cytotoxicity of compound 1 against GBM is primarily attributable to the inhibitory structure of linezolid-conjugated HDAC (Figure 2A). Furthermore, we compared the cytotoxic effects of compound 1 on various wild-type brain tumor cell lines, including U87MG, PT#3, LN229 GBM cells, and CT-2A mouse astrocyte cell line as well as TMZ-resistant variants cell lines, including U87MG-R, PT#3-R, CT-2A-R, and T98G (MGMT-positive). […] Additionally, we further confirmed the efficacy of compound 1 in GBM treatment.
MTT assay was employed to evaluate the cytotoxicity of the synthesized compound against resistant GBM cells. The MTT (3-(4,5-dimethylthiazol-2-yl)-2,5-diphenyltetrazolium bromide, catalog no. AM0818-0005) powder was purchased from BIONOVAS (Ontario, Canada). The MTT was prepared at 10 mg/mL stock with ultrapure water and then stored at −20 °C. All cells were seeded 2.5 × 10^4 per well in the 24-well plate for 24 h, followed by treating at different concentrations of compounds for 72 h. Before the experiment, the MTT stock was 10-fold diluted with the culture medium and then incubated with cells for 30 min. After the incubation, the MTT medium was discarded and added 300 μL of dimethyl sulfoxide (DMSO, cat. no. D2650, Sigma-Aldrich, MO, USA) to dissolve the cells. Finally, 100 μL of the mixture was transferred to measure the OD 595 nm absorbance.

[2] = system: TMZ-resistant GBM cell lines A172R and PT#3R; assay: MTT cytotoxicity assay, TMZ-resistant GBM lines (statement in words); type: cell-based; settings: 0 to 80 μM, 72 h
Protocol: as §1
MTT assay was employed to evaluate the cytotoxicity of the synthesized compound against resistant GBM cells. The MTT (3-(4,5-dimethylthiazol-2-yl)-2,5-diphenyltetrazolium bromide, catalog no. AM0818-0005) powder was purchased from BIONOVAS (Ontario, Canada). The MTT was prepared at 10 mg/mL stock with ultrapure water and then stored at −20 °C. […] Finally, 100 μL of the mixture was transferred to measure the OD 595 nm absorbance.

[3] = system: U87MG; assay: CCK8 cell proliferation assay, U87MG; type: cell-based; settings: Homo sapiens, U-87 MG, CCK8, 72 h
Protocol: (§2) Cell viability and drug cytotoxicity were determined by a CCK-8 kit (Cell Counting Kit-8, CK04-13, MD, USA) (CCK8, C0005, Target Molecule Corp., MA, USA) reagent. Cells were seeded 2 × 10^3 per well in the 96-well plate for 24 h, followed by treating at different concentrations of compounds for 72 h. Before the experiment, CCK8 was 10-fold diluted with the culture medium and then incubated with cells for 30 min. Finally, the OD was 450 nm absorbance and calculated for cell viability.

[4] = system: T98G (MGMT-positive); assay: CCK8 cell proliferation assay, T98G; type: cell-based; settings: Homo sapiens, CCK8, 72 h
Protocol: as §2

[5] = system: GBM, TMZ-resistant GBM, and patient-derived TMZ-resistant GBM cells; assay: CCK8 assay, GBM cell panel (range given); type: cell-based; settings: read-out: IC50 values, range over GBM cells
Protocol: as §2

[6] = target: T1, HDAC2 (Homo sapiens, UniProt Q92769); assay: HDAC enzyme inhibition assay, HDAC2; type: biochemical; settings: 10-dose, 3-fold serial dilution starting at 10 μM
T1 construct: purchased Reaction Biology Corporation, Malvern, PA (contract assay service)
Protocol: Enzyme inhibition assays were performed by the Reaction Biology Corporation, Malvern, PA (http://www.reactionbiology.com).

[7] = system: PT#3R cells; assay: Cell cycle analysis by flow cytometry; type: cell-based, human; settings: 72 h
Protocol: To measure the cell cycle, cells were seeded 5 × 10^4 per well in a 12-well plate for 24 h, followed by treatment of the different concentrations of compounds for 72 h. Next, the cells were fixed with 70% ethanol and stored at −20 °C for at least 24 h. After washing, the cells were stained with 30 μg/mL propidium iodide (PI, Cat# P4170, Sigma-Aldrich) and contented 10 ng/mL RNaseA (Cat# R6148, Sigma-Aldrich) for 30 min, followed by detection using flow cytometry Guava easyCyte Flow Cytometers and then analyzed by the Guava easyCyte System 3.3 (Cytec Industries Incorporated, NJ, USA).

[8] = system: DNA HR repair in U87MG cells; assay: Homologous recombination repair assay; type: cell-based, human; settings: increasing drug concentrations
Protocol: For the DNA, HR repair assay continued to use our previous study.[30] U87MG cells were cotransfected at a 2:1 ratio using the […] reporter and DsRed-Monomer plasmids. Cells were harvested 2 days after transfection and subjected to flow cytometry analysis by a Guava EasyCyte System. Only DsRed-positive cells were analyzed for HR and NHEJ efficiencies to circumvent possible differences in transfection efficiencies. Data were analyzed to reveal the percentage of GFP-positive cells relative to those of DsRed-positive cells. Data were set to 1% of the background level of GFP-positive cells in every internal control.

[9] = system: Rad51 protein in PT#3R GBM cells; assay: Immunoprecipitation and ubiquitination assay; type: cell-based, human; settings: 24 h, IP with anti-Rad51 antibody
[10] = Pharmacokinetic study in Sprague-Dawley rats; type: in vivo; settings: male, plasma, rat, 10 mg/kg intravenous
Protocol: The pharmacokinetic study protocol of compound 1 was approved by the IACUC of TMU (LAC-2022-0452), in compliance with National Research Council’s Guide for the Care and Use of Laboratory Animal. 8 Week-old male Sprague–Dawley rats were provided by BioLASCO (Taipei, Taiwan). Each rat (n = 3) was intravenously administered with a single dosage of 10 mg/kg A089 through the jugular vein. Blood samples were collected from the jugular vein at predetermined time points: 0.03, 0.08, 0.25, 0.5, 1, 2, 4, 6, 8, 12, and 24 h postadministration. The blood samples were centrifuged at 4 °C to obtain the plasma samples. For protein precipitation, an aliquot of acetonitrile was added to the plasma, followed by centrifugation and filtration using a 0.22 μm filter. The filtrate was then analyzed by ultraperformance liquid chromatography–tandem mass spectrometry (UPLC–MS/MS, TQ-XS, Waters Corp., Manchester, UK). Pharmacokinetic parameters were calculated by using a noncompartmental analysis with Phoenix WinNonlin software (Certara, Princeton, NJ, USA).

T1 sequence (Q92769 whole entry): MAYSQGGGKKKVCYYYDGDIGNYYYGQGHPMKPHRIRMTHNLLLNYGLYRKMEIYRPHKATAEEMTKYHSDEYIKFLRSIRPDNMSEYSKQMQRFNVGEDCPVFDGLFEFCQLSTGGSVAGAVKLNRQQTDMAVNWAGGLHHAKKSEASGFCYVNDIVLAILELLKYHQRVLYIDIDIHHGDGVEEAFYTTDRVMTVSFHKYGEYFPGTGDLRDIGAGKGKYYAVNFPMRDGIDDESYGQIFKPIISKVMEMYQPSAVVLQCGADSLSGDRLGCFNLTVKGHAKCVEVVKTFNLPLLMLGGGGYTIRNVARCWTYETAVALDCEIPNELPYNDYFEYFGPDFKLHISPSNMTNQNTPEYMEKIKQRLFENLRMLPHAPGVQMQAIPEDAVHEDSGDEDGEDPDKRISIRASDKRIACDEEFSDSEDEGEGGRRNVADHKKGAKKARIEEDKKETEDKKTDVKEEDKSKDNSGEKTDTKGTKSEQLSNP

O=C(/C=C/c1ccc(CNC[C@H]2CN(c3ccc(N4CCOCC4)c(F)c3)C(=O)O2)cc1)NO [compound 1, (S,E)-3-(4-((((3-(3-Fluoro-4-morpholinophenyl)-2-oxooxazolidin-5-yl)methyl)ami-no)methyl)phenyl)-N-hydroxyacrylamide]
IC50 [1]: 17.4 ± 1.21 µM | cytotoxicity in TMZ-resistant GBM [2]: exhibited the capacity to induce cytotoxicity | IC50 [3]: 13.5 ± 0.54 µM | IC50 [4]: 30.6 ± 0.56 µM | IC50 [5]: 10.3 to 30.6 µM | IC50 [6]: 2.81 µM | cell cycle distribution [7]: G2/M phase arrest and increases in the sub-G1 cell population | DNA HR repair capability [8]: substantial decrease in DNA HR repair capability | Rad51 ubiquitination [9]: significant increase in Rad51 ubiquitination | AUC(0-inf) at 24 h [10]: 2280 ± 760 ng·h/mL | AUC(0-t) at 24 h [10]: 2010 ± 530 ng·h/mL | C0 at 24 h [10]: 12300 ± 8130 ng/mL | MRT inf at 24 h [10]: 7.91 ± 3.11 h | Vd at 24 h [10]: 76.2 ± 12.3 L/kg | clearance at 24 h [10]: 78 mL/min/kg | half-life at 24 h [10]: 12 ± 4.42 h
